{"source": "ChEMBL document CHEMBL1649260", "about": "“Case of fatal Blastoschizomyces capitatus infection occurring in a patient receiving empiric micafungin therapy” (2009)", "note": "Numbered stars: 1 amine (or outer) side, 2 acyl side, 3 side chain; on linkers, the order of the positions; unused ones are H or OH. Bridge positions count the residues as written; N and C are the ends. Square brackets hold non-standard residues; d marks the D form. Peptide text beside a SMILES is read from it. * marks the point of attachment. hTyr(3S-OH,4S-OH,3'-OSO3H) = N[C@H](C(=O)O)[C@H](O)[C@@H](O)c1ccc(O)c(OS(=O)(=O)O)c1; pTerphenylCO(4''-OnC5H11) = CCCCCOc1ccc(-c2ccc(-c3ccc(C(=O)*)cc3)cc2)cc1; Orn(4R-OH,5R-OH) = O=C([C@H](C[C@@H](O)[C@@H](O)N[*:3])N[*:1])[*:2]; hTyr(3S-OH,4S-OH) = N[C@H](C(=O)O)[C@H](O)[C@@H](O)c1ccc(O)cc1; Pro(3S-OH,4S-Me) = C[C@H]1CN[C@H](C(=O)O)[C@H]1O; X1 = CCCCCOc1ccc(-c2cc(-c3ccc(C(=O)*)cc3)no2)cc1; Gln(3R-OH) = NC(=O)C[C@@H](O)[C@H](N)C(=O)O; Hyp = O=C(O)[C@@H]1C[C@@H](O)CN1"}
{"system": "Magnusiomyces capitatus", "experiment": "Antimicrobial activity against Blastoschizomyces capitatus by microdilution method", "format": "functional", "units": {"MIC": "µg/mL"}}
{"smiles": "C[C@@H]1[C@H](O)[C@@H](C)/C=C/C=C/C=C/C=C/C=C/C=C/C=C/[C@H](O[C@@H]2O[C@H](C)[C@@H](O)[C@H](N)[C@@H]2O)C[C@@H]2O[C@](O)(C[C@@H](O)C[C@@H](O)[C@H](O)CC[C@@H](O)C[C@@H](O)CC(=O)O[C@H]1C)C[C@H](O)[C@H]2C(=O)O", "note": "[AMPHOTERICIN B]", "MIC": 0.5}
{"smiles": "CCCCCOc1ccc(-c2ccc(-c3ccc(C(=O)N[C@H]4C[C@@H](O)[C@@H](O)NC(=O)[C@@H]5[C@@H](O)[C@@H](C)CN5C(=O)[C@H]([C@@H](C)O)NC(=O)[C@H]([C@H](O)[C@@H](O)c5ccc(O)cc5)NC(=O)[C@@H]5C[C@@H](O)CN5C(=O)[C@H]([C@@H](C)O)NC4=O)cc3)cc2)cc1", "note": "[ANIDULAFUNGIN] ({pTerphenylCO(4''-OnC5H11)}-[Orn(4R-OH,5R-OH)]T[Hyp][hTyr(3S-OH,4S-OH)]T[Pro(3S-OH,4S-Me)]; lactam 1-C)", "MIC": 0.5}
{"smiles": "CC[C@H](C)C[C@H](C)CCCCCCCCC(=O)N[C@H]1C[C@@H](O)[C@@H](NCCN)NC(=O)[C@@H]2[C@@H](O)CCN2C(=O)[C@H]([C@H](O)CCN)NC(=O)[C@H]([C@H](O)[C@@H](O)c2ccc(O)cc2)NC(=O)[C@@H]2C[C@@H](O)CN2C(=O)[C@H]([C@@H](C)O)NC1=O", "note": "[CASPOFUNGIN]", "MIC": 8}
{"smiles": "OC(Cn1cncn1)(Cn1cncn1)c1ccc(F)cc1F", "note": "[FLUCONAZOLE]", "MIC": 4}
{"smiles": "Nc1nc(=O)[nH]cc1F", "note": "[FLUCYTOSINE]", "MIC": "≤ 0.06"}
{"smiles": "CCC(C)n1ncn(-c2ccc(N3CCN(c4ccc(OCC5COC(Cn6cncn6)(c6ccc(Cl)cc6Cl)O5)cc4)CC3)cc2)c1=O", "note": "(centres undefined) [ITRACONAZOLE]", "MIC": 0.06}
{"smiles": "CCCCCOc1ccc(-c2cc(-c3ccc(C(=O)N[C@H]4C[C@@H](O)[C@@H](O)NC(=O)[C@@H]5[C@@H](O)[C@@H](C)CN5C(=O)[C@H]([C@H](O)CC(N)=O)NC(=O)[C@H]([C@H](O)[C@@H](O)c5ccc(O)c(OS(=O)(=O)O)c5)NC(=O)[C@@H]5C[C@@H](O)CN5C(=O)[C@H]([C@@H](C)O)NC4=O)cc3)no2)cc1", "note": "[MICAFUNGIN] (X1-[Orn(4R-OH,5R-OH)]T[Hyp][hTyr(3S-OH,4S-OH,3'-OSO3H)][Gln(3R-OH)][Pro(3S-OH,4S-Me)]; lactam 1-C)", "MIC": 0.5}
{"smiles": "CC[C@@H]([C@H](C)O)n1ncn(-c2ccc(N3CCN(c4ccc(OC[C@@H]5CO[C@@](Cn6cncn6)(c6ccc(F)cc6F)C5)cc4)CC3)cc2)c1=O", "note": "[POSACONAZOLE]", "MIC": 0.12}
{"smiles": "C[C@@H](c1ncncc1F)[C@](O)(Cn1cncn1)c1ccc(F)cc1F", "note": "[VORICONAZOLE]", "MIC": 0.06}
